Patent US20050075403A1, “Ambroxol for the treatment of inflammation in the pharynx” (priority 2003, published 2005)

Experiments:
TNF = settings: in vitro; cited from earlier work
[1] = tested on: tumor necrosis factor α (TNF-α); settings: human mononuclear cells stimulated with lipopolysaccharide; cited from earlier work
IL-1 = settings: human mononuclear cells stimulated with lipopolysaccharide; cited from earlier work
[2] = tested on: patients suffering from oro-pharyngeal catarrh accompanied by pain (sore throat); assay: Example 1: placebo-controlled double-blind trial, two days of treatment with ambroxol lozenges; type: in vivo, human; settings: up to six lozenges containing 20 mg ambroxol hydrochloride per day, vs placebo
From the text: The activity of ambroxol according to the invention is intended to be illustrated by the following three examples of clinical trials which investigate: 1) the […] of ambroxol lozenges by measurement of the redness symptom and 2) the efficacy and tolerability of ambroxol lozenges relative to placebo in relieving the symptoms of sore throat of at least moderately severe intensity in patients suffering from oro-pharyngeal catarrh accompanied by pain.
The first study was a multi-centre, prospective, placebo-controlled, randomized, double-blind trial involving two days of treatment with up to six lozenges containing 20 mg ambroxol hydrochloride per day.
109 patients were treated with ambroxol and 109 patients with placebo.

interleukin-2 (IL-2) = settings: bronchoalveolar lavage cells and peripheral blood mononuclear cells stimulated with phythemagglutine; cited from earlier work
interferon-γ (INF-γ) = settings: bronchoalveolar lavage cells and peripheral blood mononuclear cells stimulated with phythemagglutine; cited from earlier work
IL-10 / IL-12 balance = settings: in vitro; cited from earlier work

For CC(C(=O)O)c1cccc(C(=O)c2ccccc2)c1 (stereo not shown) [ketoprofen], the “release of inflammatory TNF” value (TNF) is given as “induce the release”.
For Nc1c(Br)cc(Br)cc1CN[C@H]1CC[C@H](O)CC1 [ambroxol, trans-4-(2-amino-3,5-dibromobenzylamino)-cyclohexanole], the “production of tumor necrosis factor α (TNF-α)” value [1] is given as “inhibit the production”, the “production of IL-1” value (IL-1) is given as “inhibit the production” and the “pain (primary endpoint)” value [2] is given as “reduced statistically significantly”. The “secretion of interleukin-2 (IL-2)” value (interleukin-2 (IL-2)) was “decrease the secretion”, the “secretion of interferon-γ (INF-γ)” value (interferon-γ (INF-γ)) was “decrease the secretion” and the “inflammatory responses, local balance of IL-10 and IL-12” value (IL-10 / IL-12 balance) was “enhance inflammatory responses”.
